Test results from patent US10662218B2, “Analogs of celastrol” (ERX Pharmaceuticals, Inc., priority 2015, dated 2020).
≈ marks a conversion by molar mass, not a printed value. Where “and” joins values, the source holds several entries; their conditions need not be identical. Identical values can stand only once. Like-named read-outs stand apart in the source and are kept apart here.

Columns and labels:
[1] = test system: C57BL/6 Diet Induced Obese (DIO) mice; assay: Oral (P.O.) administration study in DIO mice: animal fate (mortality) and clinical observations; details: mouse, in vivo, 2 mg/kg
Protocol: Male C57BL/6 DIO mice were assigned to 12 groups, and doses of 2 mg/kg Celastrol (ERX1000-4), ERX1006, ERX1007, ERX1037, ERX1060, ERX1077, ERX1107, ERX1149, ERX1168, ERX1177, and Pristimerin were administered to Groups 2 through 12, respectively. Animals were dosed via oral gavage once daily for 10 days at a volume of 2 mL/kg. The vehicle control article was 1% methyl cellulose (400 cps) in citric acid and phosphate buffer.
Parameters assessed included mortality, clinical observations, body weights and food consumption and blood glucose evaluations.
All animals were anesthetized via carbon dioxide, sacrificed, and discarded without further evaluation on Day 11.

[2] = Compound solubility in PBS (pH 7.4), LC-MS/MS; details: PBS (pH 7.4), pH 7.4, aqueous buffer, kinetic from dmso stock
Protocol: • Test concentration: 100 μM (1% of DMSO) • Test systems: PBS (pH 7.4) • Incubation condition: shaken (1000 rpm) for 1 h at room temperature • Sample size: Duplicates (n=2) • Bioanalytical method: LC-MS/MS

[3] = test system: C57BL/6 Diet Induced Obese (DIO) mice; assay: Oral (P.O.) administration study in DIO mice: in vivo activity, body weights; set-up: species or system mouse; details: for Body weight, Mean / change in vivo at 2 mg/kg: male; for change in vivo at 2 mg/kg: Mus musculus, po, read-out: Body weight, %-Diff; for Individual Body Weight, PRED 11: pre-dose phase day 11 (baseline); for Individual Body Weight, PRED 12: pre-dose phase day 12 (baseline); for Individual Body Weight, PRED 13: pre-dose phase day 13 (baseline); for Individual Body Weight, PRED 14: pre-dose phase day 14 (baseline); for Individual Body Weight, DSNG 1: dosing phase day 1; for Individual Body Weight, DSNG 2: dosing phase day 2; for Individual Body Weight: individual male animals
Text: The purpose of this study was to assess test articles in the Diet Induced Obese (DIO) mouse.
Male C57BL/6 Diet Induced Obese (DIO) mice were received from Taconic. Animals were acclimated to housing conditions for at least 1 week prior to vehicle acclimation dosing. Animals were acclimated to oral gavage dosing with vehicle once daily for Days 11 through 14 of the predose phase.
At initiation of dosing, animals were 21 to 22 weeks old, and their body weights ranged from 29.8 to 40.1 g.
Dose formulations were administered by oral gavage once daily for 10 days at a dose volume of 2 mL/kg. Doses were based on the most recently recorded scheduled body weight.
Body weights were recorded daily on Days 11 through 14 of the predose phase. Body weights were collected for all animals daily during the dosing phase prior to dosing.
Descriptive statistics (n, mean, standard error of the mean, standard deviation) were completed. Additionally, one-way analysis of variance followed by Dunnett's post-hoc test were performed on body weight (cumulative body weight change), glucose (glucose percent change), and food consumption (cumulative food consumption). Area under the curve (for body weight, cumulative body weight change, daily body weight change, and food consumption) was computed for treatment groups. An appropriate comparison test, such as one-way analysis of variance and Dunnett's, was performed on the group means for the area under the curve computations. Any additional statistical analysis and interpretation of the results were the responsibility of the sponsor.

[4] = Solubility (μM) Mean, Table 6-B, test concentration 100 μM (1% of DMSO), shaken (1000 rpm) 1 h at room temperature, n = 2
[5] = DIO mice, 2 mg/kg, phase DSNG, Day 7
[6] = DIO mice, 2 mg/kg, phase DSNG, Day 8
[7] = DIO mice, 2 mg/kg, phase DSNG, Day 9
[8] = DIO mice, 2 mg/kg, phase DSNG, Day 10
[9] = DIO mice, 2 mg/kg, phase DSNG, Day 11
[10] = Day 1, DSNG phase, 2 mg/kg, N=5
[11] = Day 2, DSNG phase, 2 mg/kg, N=5
[12] = Day 3, DSNG phase, 2 mg/kg, N=5
[13] = Day 4, DSNG phase, 2 mg/kg, N=5
[14] = Day 5, DSNG phase, 2 mg/kg, N=5
[15] = Day 6, DSNG phase, 2 mg/kg, N=5
[16] = 24 h, Day 1, DSNG phase, 2 mg/kg, difference of group mean
[17] = 48 h, Day 2, DSNG phase, 2 mg/kg, difference of group mean
[18] = 72 h, Day 3, DSNG phase, 2 mg/kg, difference of group mean
[19] = 96 h, Day 4, DSNG phase, 2 mg/kg, difference of group mean
[20] = 120 h, Day 5, DSNG phase, 2 mg/kg, difference of group mean
[21] = 144 h, Day 6, DSNG phase, 2 mg/kg, difference of group mean
[22] = 168 h, DIO mice, 2 mg/kg, phase DSNG, Day 7, difference of group mean from vehicle group 1
[23] = 192 h, DIO mice, 2 mg/kg, phase DSNG, Day 8, difference of group mean from vehicle group 1
[24] = 216 h, DIO mice, 2 mg/kg, phase DSNG, Day 9, difference of group mean from vehicle group 1
[25] = 240 h, DIO mice, 2 mg/kg, phase DSNG, Day 10, difference of group mean from vehicle group 1
[26] = 264 h, DIO mice, 2 mg/kg, phase DSNG, Day 11, difference of group mean from vehicle group 1
[27] = individual male DIO mouse of the 2 mg/kg group
[28] = individual male DIO mouse, 2 mg/kg, 2 mg/kg
[29] = individual male DIO mouse, group dosed 2 mg/kg, 2 mg/kg

Compound | Individual Animal Fate: Fate Status [1] | solubility at 1 h [2, 4] [µM] | solubility at 1 h ([2]; Solubility (μM), Table 6-D) [µM] | Body weight, Mean [3, 5] [g] | Body weight, Mean [3, 6] [g] | Body weight, Mean [3, 7] [g] | Body weight, Mean [3, 8] [g] | Body weight, Mean [3, 9] [g] | Body weight, Mean [3, 10] [g] | Body weight, Mean [3, 11] [g] | Body weight, Mean [3, 12] [g] | Body weight, Mean [3, 13] [g] | Body weight, Mean [3, 14] [g] | Body weight, Mean [3, 15] [g] | change in vivo at 2 mg/kg [3, 16] [%] | change in vivo at 2 mg/kg [3, 17] [%] | change in vivo at 2 mg/kg [3, 18] [%] | change in vivo at 2 mg/kg [3, 19] [%] | change in vivo at 2 mg/kg [3, 20] [%] | change in vivo at 2 mg/kg [3, 21] [%] | further results
CC1=C(O)C(=O)C=C2C1=CC=C1[C@@]2(C)CC[C@@]2(C)[C@@H]3C[C@](C)(CN(C)C)CC[C@]3(C)CC[C@]12C [ERX1060] | Scheduled Sacrifice | 1.11 (≈ 0.515 µg/mL) | 1.11 (≈ 0.515 µg/mL) | 33.8 | 33.3 | 33.1 | 33.5 | 34.4 | 34.6 | 34.1 | 34.4 | 34.1 | 34.2 | 34.4 | 1 | -1 | 1 | 2 | 1 | 3 | change in vivo at 2 mg/kg [3, 22]: 1%; change in vivo at 2 mg/kg [3, 23]: -1%; change in vivo at 2 mg/kg [3, 24]: 0%; change in vivo at 2 mg/kg [3, 25]: 0%; change in vivo at 2 mg/kg [3, 26]: 1%; Individual Body Weight, PRED 11 [3, 27]: 36.2 g and 38.2 g and 35.9 g and 40.9 g and 38.9 g; Individual Body Weight, PRED 12 [3, 27]: 34.5 g and 36.6 g and 34.9 g and 41.2 g and 39.0 g; Individual Body Weight, PRED 13 [3, 27]: 33.2 g and 34.7 g and 33.5 g and 39.8 g and 37.1 g; Individual Body Weight, PRED 14 [3, 27]: 33.7 g and 35.1 g and 32.7 g and 40.6 g and 37.4 g; Individual Body Weight, DSNG 1 [3, 28]: 32.9 g and 34.3 g and 31.3 g and 38.7 g and 35.6 g; Individual Body Weight, DSNG 2 [3, 28]: 33.2 g and 34.1 g and 29.8 g and 38.2 g and 35.2 g
CC1=C(O)C(=O)C=C2C1=CC=C1[C@@]2(C)CC[C@@]2(C)[C@@H]3C[C@](C)(N(C)C)CC[C@]3(C)CC[C@]12C [ERX1177] | Scheduled Sacrifice | 49.5 (≈ 22.3 µg/mL) | 49.5 (≈ 22.3 µg/mL) | 33.4 | 33.1 | 33.0 | 33.1 | 33.0 | 34.9 | 34.4 | 34.2 | 33.7 | 33.8 | 33.5 | 2 | 0 | 1 | 1 | 0 | 0 | Individual Body Weight ([3]; 2 mg/kg, Phase Day DSNG 3): 31.8 g (2×) and 34.6 g (2×) and 38.2 g; Individual Body Weight ([3]; 2 mg/kg, Phase Day DSNG 4): 31.2 g and 30.8 g and 34.8 g and 37.7 g and 34.2 g; Individual Body Weight ([3]; 2 mg/kg, Phase Day DSNG 5): 31.3 g and 30.9 g and 34.2 g and 38.0 g and 34.4 g; Individual Body Weight ([3]; 2 mg/kg, Phase Day DSNG 6): 31.4 g and 30.1 g and 33.7 g and 38.1 g and 34.4 g; Individual Body Weight ([3]; 2 mg/kg, Phase Day DSNG 7): 31.4 g and 29.9 g and 33.7 g and 38.0 g and 34.1 g; Individual Body Weight ([3]; 2 mg/kg, Phase Day DSNG 8): 31.0 g and 29.8 g and 33.4 g and 37.8 g and 33.7 g; change in vivo at 2 mg/kg [3, 22]: 0%; change in vivo at 2 mg/kg [3, 23]: -2%; change in vivo at 2 mg/kg [3, 24]: -1%; change in vivo at 2 mg/kg [3, 25]: -1%; change in vivo at 2 mg/kg [3, 26]: -3%; Individual Body Weight, DSNG 1 [3, 28]: 32.0 g and 32.1 g and 35.5 g and 40.1 g and 35.0 g; Individual Body Weight, DSNG 2 [3, 28]: 32.2 g and 31.9 g and 34.5 g and 38.4 g and 34.9 g; Individual Body Weight, PRED 11 [3, 29]: 33.8 g and 33.3 g and 37.1 g and 41.9 g and 35.5 g; Individual Body Weight, PRED 12 [3, 29]: 32.5 g and 33.7 g and 36.7 g and 41.6 g and 36.2 g; Individual Body Weight, PRED 13 [3, 29]: 31.8 g and 32.6 g and 35.6 g and 42.2 g and 36.1 g; Individual Body Weight, PRED 14 [3, 29]: 31.7 g and 33.1 g and 36.4 g and 41.7 g and 36.2 g
